# Test results taken from EP4778516A1, “CALCIFICATION ENHANCER FOR OSTEOBLAST MC3T3-E1 CELL” (Watanabe Oyster Laboratory Co., Ltd., priority 2023, dated 2025).
# Columns and labels:
# [1] = system: bone-metastatic prostate cancer cells; details: earlier demonstration by the present inventors; cited from earlier work
# [2] = system: MC3T3-E1 cells; assay: Effects of conditioned medium of LPS-stimulated RAW264.7 cells on MC3T3-E1 cells; assay type: cell-based, mouse
# Method: A conditioned medium was obtained by culturing RAW264.7 cells.
# RAW264.7 cells (1×10^5 cells/ml per well in a 24-well plate) were cultured for 3 days after reaching subconfluence in DMEM containing 10% FBS and 1% P/S in the presence or absence of LPS (concentration in the medium: 100 ng/ml). After the cells were cultured, the medium (conditioned medium) was collected.
# To evaluate the effects of the conditioned medium on proliferation of MC3T3-E1 cells, MC3T3-E1 cells were cultured for 3 days in a-MEM containing 10% FBS and 1% P/S. The cells were then cultured for 3 days using either the conditioned medium (1 ml, control) cultured without LPS or the conditioned medium (0.25 or 0.50 ml per well, adjusted to 1 ml with normal medium) cultured with LPS in the presence or absence of DHMBA (1 or 10 mM).
# Further, to examine the effects on cell death of MC3T3-E1 cells, the cells (1×10^5 cells/ml per well) were cultured for 3 days in a-MEM containing 10% FBS and 1% P/S. After reaching subconfluence, the medium was replaced. The cells were then further cultured for 48 hours in either the normal medium, the conditioned medium (1 ml) cultured without LPS, or the conditioned medium (0.25 or 0.50 ml per well, adjusted to 1 ml with normal medium) with either a reagent vehicle (1% ethanol as final concentration) or DHMBA (1 or 10 mM). After culture, the cells were detached from each culture well, and cell numbers were counted in the same manner as described above.
# Further, the effects of Bay 11-7082, which is an NF-kB signaling inhibitor, on proliferation or cell death of MC3T3-E1 cells were investigated. First, to examine the effects of Bay 11-7082 on proliferation of MC3T3-E1 cells, the cells (1×10^5 cells/1 ml per well in a 24-well plate) were cultured for 3 days until reaching subconfluence in the presence of 10% FBS, 1% P/S, and either a reagent vehicle (1% ethanol as final concentration) or Bay 11-7082 (1, 10, 50, 100, or 1000 nM). Next, MC3T3-E1 cells were cultured for 3 days in the presence of the conditioned medium (0.5 ml per well, adjusted to a total of 1 ml with normal medium) with or without Bay 11-7082 (1 or 10 nM) in the presence or absence of DHMBA (10 mM).
# In another experiment, to evaluate the effects of Bay 11-7082 on cell death of MC3T3-E1, the cells (1×10^5 cells/1 ml per well in a 24-well plate) were cultured in a-MEM containing 10% FBS and 1% P/S. After culturing for 3 days until reaching subconfluence, the medium was replaced with a-MEM (1 ml) containing either the normal medium or the conditioned medium prepared by adding the normal medium to 0.5 ml per well of the conditioned medium, adjusted to a total volume of 1 ml. The cells were then further cultured for 48 hours in the presence of Bay 11-7082 (1 or 10 nM), or Bay 11-7082 (10 nM) in combination with DHMBA (10 mM). After culture, the cells were detached from each culture well, and cell numbers were counted as described above.
structure (smiles),measurement,setting,value
"COc1c(O)cc(CO)cc1O [DHMBA, 3,5-dihydroxy-4-methoxybenzyl alcohol]",metastatic activity of bone-metastatic prostate cancer cells,[1],suppressive effects
same,proliferation of bone-metastatic prostate cancer cells,[1],suppressive effects
same,"suppressive effect of DHMBA on conditioned-medium-induced suppression of proliferation, in combination with Bay 11-7082",[2]; DHMBA in the presence of Bay 11-7082,not further enhanced
same,enhancement of death of MC3T3-E1 cells by the conditioned medium,"[2]; conditioned medium 0.5 ml, DHMBA 1 or 10 mM, 48 hours, Fig. 6B",suppressed
same,inhibition of proliferation of MC3T3-E1 cells by the conditioned medium,"[2]; conditioned medium with LPS stimulation, DHMBA 1 or 10 mM, 3 days, Fig. 6A",prevented
